The source made the active and inactive calls. The rule behind the calls is not given here.
System: CCRIS mutagenicity, Ames/micronucleus/aberration tests
Test: CCRIS mutagenicity studies
[1] = Test System: AMES SALMONELLA TYPHIMURIUM, Strain/Indicator: TA97, Metabolic Activation: NONE, Method: PREINCUBATION
[2] = Test System: AMES SALMONELLA TYPHIMURIUM, Strain/Indicator: TA100, Metabolic Activation: RAT, LIVER, S-9, AROCLOR 1254, Method: STANDARD PLATE
[3] = Test System: AMES SALMONELLA TYPHIMURIUM, Strain/Indicator: TA98, Metabolic Activation: NONE, Method: PREINCUBATION
[4] = Test System: AMES SALMONELLA TYPHIMURIUM, Strain/Indicator: TA100, Metabolic Activation: NONE, Method: PREINCUBATION

`CC(C)[C@@H]1CC[C@@H](C)C[C@H]1O` was tested, and the mutagenic call [1] was “inactive; negative”, the mutagenic call (Test System: AMES SALMONELLA TYPHIMURIUM, Strain/Indicator: TA97, Metabolic Activation: RAT, LIVER, S-9, AROCLOR 1254, Method: PREINCUBATION) was “inactive; negative” and the mutagenic call (Test System: AMES SALMONELLA TYPHIMURIUM, Strain/Indicator: TA97A, Metabolic Activation: NONE, Method: STANDARD PLATE) was “inactive; negative”. For the same compound, the mutagenic call (Test System: AMES SALMONELLA TYPHIMURIUM, Strain/Indicator: TA97A, Metabolic Activation: RAT LIVER S-9, AROCLOR 1254, Method: STANDARD PLATE) was “inactive; negative”, the mutagenic call (Test System: AMES SALMONELLA TYPHIMURIUM, Strain/Indicator: TA98, Metabolic Activation: NONE, Method: STANDARD PLATE) was “inactive; negative” and the mutagenic call (Test System: AMES SALMONELLA TYPHIMURIUM, Strain/Indicator: TA98, Metabolic Activation: RAT LIVER S-9, AROCLOR 1254, Method: STANDARD PLATE) was “inactive; negative”. The mutagenic call (Test System: AMES SALMONELLA TYPHIMURIUM, Strain/Indicator: TA98, Metabolic Activation: RAT, LIVER, S-9, AROCLOR 1254, Method: STANDARD PLATE) was “inactive; negative”, the mutagenic call (Test System: AMES SALMONELLA TYPHIMURIUM, Strain/Indicator: TA100, Metabolic Activation: NONE, Method: STANDARD PLATE) was “inactive; negative” and the mutagenic call (Test System: AMES SALMONELLA TYPHIMURIUM, Strain/Indicator: TA100, Metabolic Activation: RAT LIVER S-9, AROCLOR 1254, Method: STANDARD PLATE) was “inactive; negative”. For the same compound, the mutagenic call [2] was “inactive; negative”, the mutagenic call (Test System: AMES SALMONELLA TYPHIMURIUM, Strain/Indicator: TA102, Metabolic Activation: NONE, Method: PREINCUBATION) was “inactive; negative” and the mutagenic call (Test System: AMES SALMONELLA TYPHIMURIUM, Strain/Indicator: TA102, Metabolic Activation: NONE, Method: STANDARD PLATE) was “inactive; negative”. For the same compound, the mutagenic call (Test System: AMES SALMONELLA TYPHIMURIUM, Strain/Indicator: TA102, Metabolic Activation: RAT LIVER S-9, AROCLOR 1254, Method: STANDARD PLATE) was “inactive; negative”, the mutagenic call (Test System: AMES SALMONELLA TYPHIMURIUM, Strain/Indicator: TA102, Metabolic Activation: RAT, LIVER, S-9, AROCLOR 1254, Method: PREINCUBATION) was “inactive; negative” and the mutagenic call (Test System: AMES SALMONELLA TYPHIMURIUM, Strain/Indicator: TA1535, Metabolic Activation: NONE, Method: STANDARD PLATE) was “inactive; negative”. The mutagenic call (Test System: AMES SALMONELLA TYPHIMURIUM, Strain/Indicator: TA1535, Metabolic Activation: RAT, LIVER, S-9, AROCLOR 1254, Method: STANDARD PLATE) was “inactive; negative”, the mutagenic call (Test System: AMES SALMONELLA TYPHIMURIUM, Strain/Indicator: TA1537, Metabolic Activation: NONE, Method: STANDARD PLATE) was “inactive; negative” and the mutagenic call (Test System: AMES SALMONELLA TYPHIMURIUM, Strain/Indicator: TA1537, Metabolic Activation: RAT, LIVER, S-9, AROCLOR 1254, Method: STANDARD PLATE) was “inactive; negative”.
With `Cc1ccc(N(C)C)cc1` the mutagenic call (Test System: AMES SALMONELLA TYPHIMURIUM, Strain/Indicator: TA97, Metabolic Activation: HAMSTER, LIVER, S-9, AROCLOR 1254 (10 OR 30%), Method: PREINCUBATION) was “inactive; negative”, the mutagenic call [1] was “inactive; negative” and the mutagenic call (Test System: AMES SALMONELLA TYPHIMURIUM, Strain/Indicator: TA97, Metabolic Activation: RAT, LIVER, S-9, AROCLOR 1254 (10 OR 30%), Method: PREINCUBATION) was “inactive; negative”. For the same compound, the mutagenic call (Test System: AMES SALMONELLA TYPHIMURIUM, Strain/Indicator: TA98, Metabolic Activation: HAMSTER, LIVER, S-9, AROCLOR 1254 (10 OR 30%), Method: PREINCUBATION) was “inactive; negative”, the mutagenic call [3] was “inactive; negative” and the mutagenic call (Test System: AMES SALMONELLA TYPHIMURIUM, Strain/Indicator: TA98, Metabolic Activation: RAT, LIVER, S-9, AROCLOR 1254 (10 OR 30%), Method: PREINCUBATION) was “inactive; negative”. The mutagenic call (Test System: AMES SALMONELLA TYPHIMURIUM, Strain/Indicator: TA100, Metabolic Activation: HAMSTER, LIVER, S-9, AROCLOR 1254 (10 OR 30%), Method: PREINCUBATION) was “inactive; negative”, the mutagenic call [4] was “inactive; negative” and the mutagenic call (Test System: AMES SALMONELLA TYPHIMURIUM, Strain/Indicator: TA100, Metabolic Activation: RAT, LIVER, S-9, AROCLOR 1254 (10 OR 30%), Method: PREINCUBATION) was “inactive; negative”. The mutagenic call (Test System: AMES SALMONELLA TYPHIMURIUM, Strain/Indicator: TA1535, Metabolic Activation: RAT, LIVER, S-9, AROCLOR 1254 (5%), Method: STANDARD PLATE) was “active; positive”, the mutagenic call (Test System: AMES SALMONELLA TYPHIMURIUM, Strain/Indicator: TA1535, Metabolic Activation: RAT, LIVER, S-9, AROCLOR 1254 (5,10%), Method: PREINCUBATION) was “active; positive” and the mutagenic call (Test System: MOUSE LYMPHOMA, Strain/Indicator: L5178Y (TK+/TK-), Metabolic Activation: NONE, Method: SUSPENSION/PLATE) was “active; positive. reevaluation of results: equivocal”. For the same compound, the mutagenic call (Test System: MOUSE LYMPHOMA, Strain/Indicator: L5178Y (TK+/TK-), Metabolic Activation: RAT, LIVER, S-9, AROCLOR 1254, Method: SUSPENSION/PLATE) was “active; positive. reevaluation of results: positive”.
`C=C(C=O)CCCC` was tested, and the mutagenic call [4] was “active; positive” and the mutagenic call (Test System: AMES SALMONELLA TYPHIMURIUM, Strain/Indicator: TA100, Metabolic Activation: RAT LIVER S-9, AROCLOR 1254, Method: PREINCUBATION) was “active; positive”.
With `Cc1ccc2cc3c(c4c2c1CC4)[C@@H](O)[C@@H](O)c1ccccc1-3` the mutagenic call (Test System: CHINESE HAMSTER V-79, Strain/Indicator: V-79/8-AZAGUANINE, Metabolic Activation: NONE, Method: STANDARD PLATE) was “active; positive”.
For `c1ccc2c(c1)-c1cccc3c1c-2cc1ccccc13`, the mutagenic call (Test System: AMES SALMONELLA TYPHIMURIUM, Strain/Indicator: TA98, Metabolic Activation: HAMSTER, LIVER, S-9, AROCLOR 1254 (10%), Method: PREINCUBATION) was “active; positive”, the mutagenic call (Test System: AMES SALMONELLA TYPHIMURIUM, Strain/Indicator: TA98, Metabolic Activation: MOUSE, LIVER, S-9, AROCLOR 1254, Method: STANDARD PLATE) was “active; positive” and the mutagenic call [3] was “inactive; negative”. For the same compound, the mutagenic call (Test System: AMES SALMONELLA TYPHIMURIUM, Strain/Indicator: TA98, Metabolic Activation: RAT, LIVER, S-9, AROCLOR 1254 (10%), Method: PREINCUBATION) was “inactive; negative”, the mutagenic call (Test System: AMES SALMONELLA TYPHIMURIUM, Strain/Indicator: TA100, Metabolic Activation: HAMSTER, LIVER, S-9, AROCLOR 1254 (10%), Method: PREINCUBATION) was “active; positive” and the mutagenic call [4] was “inactive; negative”. For the same compound, the mutagenic call (Test System: AMES SALMONELLA TYPHIMURIUM, Strain/Indicator: TA100, Metabolic Activation: RAT, LIVER, S-9, AROCLOR 1254) was “active; positive”, the mutagenic call (Test System: AMES SALMONELLA TYPHIMURIUM, Strain/Indicator: TA100, Metabolic Activation: RAT, LIVER, S-9, AROCLOR 1254 (10%), Method: PREINCUBATION) was “active; positive” and the mutagenic call [2] was “active; positive”.

Reference: PubChem BioAssay AID1259407 (Chemical Carcinogenesis Research Information System (CCRIS), 2018)
